Experimental data: patent US3959283A, “Amino-derivatives of 1,4-benzodioxan” (Laboratoire L. Lafon, priority 1974, dated 1976)
Where a name gives a salt, the structure may show the parent alone. Values belong to the compound of their own block, whether it stands above or below them.

Key:
adrenergic receptors [1] = assay: α-blocking activity, parenteral (LL 1756); format: in vivo
[2] = test system: vertebral, femoral and mesenteric arteries; assay: Vasodilating properties, intravenous administration, arterial flow rates; format: in vivo, dogs; details: for increase in vertebral flow rate: 0.25 mg/kg perfused i.v.
Description: When administered intravenously, the following results were observed:
A third test is carried out by injecting, without stopping, 0.5, 1, 2 and 4 mg/kg, that is to say a total of 7.5 mg/kg.

man [3] = assay: Clinical studies in man, tablets or injectable ampoules (product of Example 2); format: in vivo; details: tablets (50 mg) or injectable ampoules (10 mg)
Description: In clinical studies, good results were obtained in man by administering tablets such as: […]

adrenergic receptors [4] = assay: Effect on responses to adrenalin, acetylcholine, isoprenalin and vagus stimulation (product of Example 2); format: in vivo, dogs
femoral artery = assay: Vasodilating properties, injection into the femoral artery; format: in vivo, dogs
Description: On injection into the femoral artery, no effect is observed at doses of less than 100 μg/kg. […] At these doses, no effect is observed on the arterial pressure AP measured in accordance with the usual conditions.

dogs [5] = assay: Coronary flow rate and haemodynamics in anaesthetised dogs, intravenous perfusion; format: in vivo
Description: (§2) During the series of pharmacological tests, the following parameters were used:
(§3) Arterial pressure (abbreviated to AP): this parameter, expressed in mm Hg) is evaluated in accordance with the usual conditions.
Arterial resistance: this parameter (expressed in dynes/sec./cm^^-5) is calculated according to the ratio [formula]
Cardiac index: this parameter is expressed in ml/min./kg.
Systolic index: this parameter is equal to the ratio cardiac index/frequency.
Cardiac work: this parameter (expressed in kgm/min.) is calculated according to the relationship: Cardiac work = average AP (mm Hg) × 1.36 = cardiac output (1/min.) × 10^^-3.
Ratio dp/dt: this parameter corresponds to the variation in pressure expressed in mm Hg per second (in English: Rate of rise of left ventricular pressure).
The technique used to measure the ratio dp/dt is as follows:
The cardiac output is determined in Beagle dogs weighing 10 to 15 kg, anesthetised with pentobarbital, by injecting Cardiogreen (1 mg in 0.5 ml) into the right ventricle. A catheter introduced via the carotid artery into the aorta makes it possible to aspirate arterial blood at the rate of 25 ml/min. and to pass it in front of the photoelectric cell of a Beckman cardiodensitometer. The results are interpreted in accordance with the Hamilton method.

adrenergic receptors [6] = assay: Oral α-blocking activity in dogs (hypertensive effects of adrenalin); format: in vivo; details: orally
vertebral artery = assay: Vasodilating properties, injection into the vertebral artery; format: in vivo, dogs
Description: On injection into the vertebral artery, no effect is observed at doses of less than 1 mg/kg. At a dose of 10 mg/kg, the flow rate increases by 37% and at a dose of 20 mg/kg it only increases by 27%. At these two doses, the arterial pressure decreases respectively by 14 and 28% although no effect had been observed during the injection into the femoral artery.

adrenergic receptors [7] = assay: Reversal of hypertensive effect of adrenalin (α-blocking), product of Example 3; format: in vivo, dogs
dogs [8] = assay: Cardiovascular properties of the product of Example 3 in dogs; format: in vivo
Description: as §3
When administered intravenously to dogs at doses ranging from 1 mg to 13 mg/kg, the following results are observed:

man [9] = assay: Administration to man in vascular complaints (product of Example 3); format: in vivo; details: tablets containing 20 mg, 2 to 3 per day
dogs [10] = assay: Intravenous perfusion in dogs anaesthetised with Nembutal (product of Example 8); format: in vivo; details: 2.5 mg/kg i.v. over 5 minutes
Description: as §2, §3
The product of Example 8 was perfused intravenously over the course of 5 minutes at doses of 2.5 and 5 mg/kg.

adrenergic receptors [11] = assay: Reversal of hypertensive effect of adrenalin (α-blocking), product of Example 8; format: in vivo; details: dogs
[12] = test system: femoral and vertebral arteries; assay: Oral administration, arterial flow rates (product of Example 8); format: in vivo, dogs; details: orally
acetylcholine = assay: Effect on the amines and reflexes: acetylcholine; details: in vivo
Description: (§1) In Table III below, the effects of the products on the amines and the reflexes have been summarised.

[13] = Acute intravenous toxicity in mice, products of Examples 10 to 13 (LD50); details: mouse, in vivo, i.v., group consisting solely of female mice
Description: (a) determined on a group of male and female mice,
(b) determined on a group consisting solely of female mice.

adrenergic receptors [14] = assay: Inhibition/reversal of tension effects of adrenalin, intravenous (products of Examples 11 to 13); format: in vivo; details: i.v.
Description: the doses of CRL 40,150 from 0.5 to 4 mg/kg being administered successively.

adrenalin = assay: Effect on the amines and reflexes: adrenalin; details: in vivo
Description: as §1

central vagus = assay: Effect on the amines and reflexes: stimulation of the central vagus; details: in vivo
Description: as §1

peripheral vagus = assay: Effect on the amines and reflexes: stimulation of the peripheral vagus; details: in vivo
Description: as §1

DMPP = assay: Effect on the amines and reflexes: DMPP; details: in vivo
Description: as §1

[15] = another test, 2 mg/kg at the very start

Compound: OCCN1CCN(CC2COc3ccccc3O2)CC1 (stereo not drawn) [Example 1, 1-[2-(1,4-Benzodioxanyl)-methyl]-4-(2-hydroxyethyl)-piperazine dihydrochloride]
- α-blocking activity (adrenergic receptors [1]): α-blocking when administered parenterally

Compound: OCCN1CCN(CC2COc3ccccc3O2)CC1 (stereo not drawn) [Example 2, 1-[2-(1,4-Benzodioxanyl)-methyl]-4-(2-hydroxyethyl)-piperazine hemifumarate]
- duration of increase in vertebral flow rate [2, 15]: more than one hour
- flow rate of the femoral artery [2, 15]: only increased greatly during the injection
- increase in flow rate of the vertebral artery [2, 15]: 87%
- increase in vertebral flow rate ([2]; first test, end of perfusion): 14%
- increase in vertebral flow rate ([2]; first test, start of perfusion): 90%
- effect of additional injections on the flow rate ([2]; first test, additional 0.5 and 5 mg/kg): no effect on the flow rate
- effect of subsequent injections on the flow rate ([2]; second test, subsequent 1 and 2 mg/kg): no effect on the flow rate
- vasodilating action (summary) ([2]; summary): can dilate either the vertebral artery or the femoral artery or both
- femoral flow rate ([2]; third test, 0.5, 1, 2 and 4 mg/kg i.v. without stopping): increased very much by the first injection, decreases during the subsequent injections
- clinical result (man [3]): good results
- effect of the stimulation of the peripheral vagus (adrenergic receptors [4]; dogs): does not alter
- effects of the injection of acetylcholine (adrenergic receptors [4]; dogs): does not alter
- effects of the injection of isoprenalin (adrenergic receptors [4]; dogs): does not alter
- α-lytic action (summary) (adrenergic receptors [4]; summary): acts as an α-lytic product
- effect on arterial pressure AP (femoral artery; injection into femoral artery, 1, 10 and 20 mg/kg): no effect
- effect on flow rate of the femoral artery (femoral artery; injection into femoral artery, doses less than 100 μg/kg): no effect
- increase in coronary flow rate (dogs [5]; 5 mg/kg i.v., 2 hours after the injection): 75%
- increase in coronary flow rate, maximum effect (dogs [5]; 5 mg/kg i.v., after 1 hour): 200%
- increase in maximum intraventricular pressure (dogs [5]; 5 mg/kg i.v., for 1 hour): 56%
- increase in the differential arterial pressure (dogs [5]; 5 mg/kg i.v., for 1 hour): 40%
- increase in ratio dp/dt (dogs [5]; 5 mg/kg i.v., for more than 1 hour): 180%
- tachycardia (dogs [5]; 5 mg/kg i.v., increase): 40%
- effect on arterial pressure (summary) (dogs [5]; at a higher dose): at a higher dose, it is hypotensive
- tachycardiac properties (summary) (dogs [5]; at low doses): possesses tachycardiac properties at low doses
- cardiac work and coronary irrigation (summary) (dogs [5]; summary): increases the cardiac work and, in parallel fashion, it increases the coronary irrigation
- hypertensive effects of adrenalin (adrenergic receptors [6]; 5 mg/kg): decreases the said effects
- hypertensive effects of adrenalin (adrenergic receptors [6]; 7 mg/kg): inhibits them strongly
- α + effect of adrenalin (adrenergic receptors [6]; 10 mg/kg): overcomes the α + effect of adrenalin
- increase in flow rate (vertebral artery; 10 mg/kg): 37%
- increase in flow rate (vertebral artery; 20 mg/kg): 27%
- effect on vertebral flow rate (vertebral artery; doses less than 1 mg/kg): no effect

Compound: OCC(O)CN1CCN(CC2COc3ccccc3O2)CC1 (stereo not drawn) [Example 3, 1-[2-(1,4-Benzodioxanyl)-methyl]-4-(2,3-dihydroxypropyl)-piperazine dihydrochloride]
- α-blocking action (conclusion) (adrenergic receptors [7]; conclusion): α-blocking agent
- hypertensive effect of adrenalin (adrenergic receptors [7]; intraduodenal, 10 mg/kg): reversal of the hypertensive effect of adrenalin
- effect on the AP (dogs [8]; i.v., 1 mg to 13 mg/kg): little effect on the AP or a slight hypotension
- vertebral flow rate (dogs [8]; i.v., 1 mg to 13 mg/kg): no effect
- cardiovascular variations after intraduodenal administration (dogs [8]; intraduodenal, 10 and 50 mg/kg): the variations described after intravenous injection are found again
- result in vascular complaints (man [9]): good results in vascular complaints

- passage into the general circulation ([12]; 10 mg/kg): passes into the general circulation
Compound: c1cnc(N2CCN(CC3COc4ccccc4O3)CC2)nc1 (stereo not drawn) [Example 8, 1-[2-(1,4-Benzodioxanyl)-methyl]-4-(2-pyrimidinyl)-piperazine dihydrochloride]
- decrease in the vertebral flow rate (dogs [10]): 19%
- effect on the mesenteric flow rate (dogs [10]): practically no effect
- increase in the differential arterial pressure (dogs [10]): 50%
- femoral vasodilating effect (dogs [10]; increase): 19%
- tachycardia (dogs [10]; increase): 19%
- hypertensive effect of adrenalin (adrenergic receptors [11]): the hypertensive effect of adrenalin is reversed, and this manifests itself in an α-blocking action
- rise in femoral flow rate ([12]; 1 to 10 mg/kg, for 30 minutes): 200%
- rise in vertebral flow rate ([12]; 1 to 10 mg/kg, for 30 minutes): 60%
- flow rate of the femoral artery ([12]; doses less than 100 μg/kg): does not alter
- flow rate of the vertebral artery ([12]; doses less than 100 μg/kg): does not alter

Compound: COc1cc(OC)c(C(=O)CN2CCN(CC3COc4ccccc4O3)CC2)c(OC)c1 (stereo not drawn) [Example 13, 1-[2-(1,4-Benzodioxanyl)-methyl]-4-(2,4,6-trimethoxyphenacyl)-piperazine dihydrochloride]
- Effect on the amines and reflexes: acetylcholine (acetylcholine): no change
- LD50 [13]: 58 mg/kg
- dose from which the hypertensive effect of adrenalin is reduced (adrenergic receptors [14]): ≥ 0.1 mg/kg
- dose from which the hypotensive effect appears (adrenergic receptors [14]; average of three different experiments): ≥ 0.2 mg/kg
- Effect on the amines and reflexes: adrenalin (adrenalin): reversal
- Effect on the amines and reflexes: stimulation of the central vagus (central vagus): slightly reduced
- Effect on the amines and reflexes: stimulation of the peripheral vagus (peripheral vagus): not changed
- Effect on the amines and reflexes: DMPP (DMPP): effect reversed
